Laboratory results: publication PMC4456413, “Trypanothione Reductase: A Target Protein for a Combined In Vitro and In Silico Screening Approach” (PLoS Neglected Tropical Diseases, 2015)
Read-outs that look alike come from different tables or passages of the source.

Tests used:
T. cruzi TR [1] = biological target: T1, T. cruzi TR (Trypanosoma cruzi, UniProt P28593); experiment: Ki determination and inhibition type on TR; type: biochemical; conditions: for Ki (Fig 7, uncompetitive mode of inhibition assumed): mean of two independent experiments, no unit printed in the figure, in µM; for binding mode (inhibition type): SigmaPlot Enzyme Kinetics Module
T1 construct: made in house
Experimental: (§1) The kinetic analysis of TR was performed in 384-well plates (Greiner Bio-One GmbH, Frickenhausen, Germany). The reaction mixture (50 μl) contained 5 mU/ml TR, 40 mM Hepes, pH 7.5, 1 mM EDTA, 300 μM NADPH (Sigma-Aldrich), 0.1 mg/ml BSA, and 0.01% Pluronic (BASF). The detergent was used to prevent the formation of droplets during pipetting and had no negative effects on the assay kinetics. In a volume of 30 μl, the assay components and the inhibitor were pre-incubated for 30 minutes and the reaction started by adding 20 μl of 375 μM TS2 resulting in final concentrations of 150 μM TS2 and 2% DMSO. The absorption decrease at 340 nm was measured by start and end point determination resulting in a delta of the optical density (delta A) for 30 min. All experiments were performed at room temperature. The TR concentration was kept constant at 5 mU/ml for all types of experiments. Therefore, after an initial calculation of the turnover number (kcat), only delta A values under identical conditions were compared. Initial screening was performed twice in two independent experiments.
Measurements were performed at 60, 80, 120, and 200 μM TS2 and five inhibitor concentrations resulting in 20 different data points per inhibitor. […] SigmaPlot 10 (Systat Software, Inc., San Jose, USA) with the Enzyme Kinetics Module was used to evaluate the inhibition type and Ki values. This software automatically estimates the initial parameters for different fit models, and uses the Marquardt-Levenberg algorithm to determine the parameter values. A detailed statistical report as well as a data report is generated to compare multiple models and graphs. Based on these statistics, the appropriate binding model can be selected. Graphs are created based on the models and the calculated parameter values instead of fitting each individual inhibitor concentration curve.

T. cruzi TR [2] = biological target: T1, T. cruzi TR; experiment: biochemical
Experimental: (§2) The compounds used in the enzymatic inhibitory testing and the in silico screening were available as stock solutions in DMSO or in solid from a compound library maintained at MSD. All IC50 determinations were performed starting from solid material. Recombinant T. cruzi TR (CL strain) was prepared using a published expression system. TS2 was prepared enzymatically as described previously. For antiparasitic studies, culture-adapted bloodstream T. brucei parasites of cell line 449 were used. These cells are descendants of strain Lister 427 stably transfected with the gene for the tetracycline repressor.
as §1, with “The detergent was used to prevent the formation of droplets during pipetting and had no negative effects on the assay kinetics.” left out
Eleven compound concentrations were used ranging from 100–0.01 μM or 200–0.004 μM. The compounds were freshly dissolved in DMSO. All measurements were performed twice in three independent series. Enzyme activities were plotted versus increasing inhibitor concentrations. IC50 values were calculated using the four-parameter equation model 205 and the option “unlock” from the XLfit add-in (IDBS, Guildford, United Kingdom) in Excel (Microsoft Corporation, Redmond, WA).
A robust NADPH-linked photometric assay was chosen that firstly had to be adapted to the high throughput screening format. The assay volume was reduced from the 1 ml cuvette format to 50 μl total volume in 384 well plates. […] In order to stabilize the enzyme and to prevent adhesion and reduce surface tension as well as the formation of droplets in the small wells, 0.1 mg/ml BSA and 0.01% detergent (Pluronic) were added to the reaction mixture.

[3] = system: bloodstream T. brucei (strain 449); experiment: Cell culture activity determination by counting living cells; type: cell-based; conditions: for EC50: Trypanosoma brucei, read-out: EC50, inhibition of parasite proliferation (living cells counted)
Experimental: as §2
Compounds were dissolved in DMSO to 10 mM stock solutions and added to bloodstream T. brucei (strain 449) in concentrations of 100, 50, 5, 0.5, and 0.05 μM in 24-well plates. The final DMSO content in the cultures was 1, 0.5, 0.05, 0.005 and 0.0005%, respectively. The initial cell density was 2500 cells/ml. After 48 h and 72 h incubation at 37°C in HMI-9 medium, viable cells were counted in a Neubauer chamber. The assay was performed in triplicate. The parasite strain and the culture conditions are described in the literature.

TR = biological target: TR; parameters: method as in ref 39 (mepacrine), 42 (BG237), 43 (chlorhexidine); conditions: published data used for assay validation; ref 39 (mepacrine), 42 (BG237), 43 (chlorhexidine); cited from earlier work
T. brucei = conditions: read-out: EC50, inhibition of proliferation of T. brucei; cited from earlier work
[4] = system: bloodstream T. brucei wild-type cells; experiment: EC50 determination by ATPlite 1step assay, wild-type cells; type: cell-based; conditions: Trypanosoma brucei
Experimental: (§3) The ATPlite 1step assay system (PerkinElmer, Waltham, MA, USA) was used as described in Füller et al. to quantify T. brucei survival in medium-throughput dose-response series. Experiments were conducted in 96-well microplates (PerkinElmer, Waltham, MA, USA), each well containing 90 μl cell-culture and 10 μl compound. Initial cell densities were 2500 cells/ml. […] Unfortunately, compound 3 was no longer available for testing. […] For each compound, three identical plates were prepared, incubated at 37°C and analyzed after 24 h, 48 h, and 72 h, respectively. Samples from each cell-line left untreated were added to the plates prior to each measurement as additional controls. 50 μl of the ATPlite 1step solution (PerkinElmer, Waltham, MA, USA) were added to each well and the relative luminescence was measured immediately using a VICTOR Multilabel Plate Reader (PerkinElmer, Waltham, MA, USA) at room temperature. The values obtained were plotted against the logarithmic compound concentrations. A dose-response curve was generated from which EC50-values were calculated using the program PRISM 5.0 (GraphPad Software, La Jolla, CA, USA).
(§4) The parasites were cultured in the presence of different concentrations of the compounds and after 48 h and 72 h living cells were counted. […] The assay is based on the emission of light caused by the reaction of ATP with D-luciferin in the presence of luciferase, which is proportional to the amount of ATP serving as a marker for cell viability. […] Unfortunately, the T. brucei strain allowing the down-regulation of TR which was generated more than a decade ago in the laboratory of Christine Clayton is not available anymore. Therefore, this tet-inducible overexpressing system leading to up to three fold higher TR levels had to be used instead. Wild-type cells treated with 1 μg/ml tetracyclin were included to exclude any effect of the antibiotic on parasite proliferation.

[5] = system: T. brucei parasites transfected with pHD1700-TbTR (TR-Over-expressing cells); experiment: EC50 determination by ATPlite 1step assay, TR-over-expressing cells; type: cell-based; conditions: Trypanosoma brucei
Experimental: as §3, §4

[6] = parameters: method as in ref 47 = [47]; 47 PubChem (2014) Chlorhexidine (CID 9552079), sections “Biomedical Effects and Tixicity” and “Biomolecular Interactions and Pathways”. Available: http://pubchem.ncbi.nlm.nih.gov/summary/summary.cgi?c; conditions: in words; cited from earlier work
T. cruzi TR [7] = biological target: T1, T. cruzi TR; experiment: Mode of inhibition study: reversibility of binding (Amicon filter wash-out, then standard TR assay); type: biochemical
Experimental: Therefore, Amicon Ultra 0.5 ml centrifugal filters with a cut-off of 10,000 MW (Millipore Corporation, Billerica, MA, USA) were washed with 400 μl TR assay buffer and centrifuged for 5 min at 12,500 rpm at room temperature. Remaining buffer was removed by placing the filter upside down into a microcentrifuge tube and centrifugation at 3,500 rpm for 2 min. […] The filter was centrifuged for 15 min at 12,500 rpm, washed three times with 400 μl buffer and centrifuged again. The retentate was collected by placing the filter upside down on a new tube and centrifugation at 3,500 rpm for 2 min. The recovered protein solutions were subjected to a standard TR assay.
A reaction mixture containing TR, inhibitor and NADPH was incubated for 30 minutes. […] Afterwards, the protein was separated from the low molecular mass components by centrifugation in an Amicon tube. Inhibitors with a reversible binding mode would be washed out, whereas irreversible binders remain bound to the protein. Finally, the recovered protein solution was subjected to a standard assay to determine the remaining activity. Two controls were run to determine the maximum activity that could be recovered. One contained the protein assay mixture without inhibitor, while the second control was a mixture of TR and the reversible inhibitor chlorhexidine. […] Subsequently the inhibitor type and constants were determined.

[8] = 60-200 μM TS2, two independent experiments
[9] = 60-200 μM TS2, two independent experiments, read-out: Ki, assumed inhibitor type competitive
[10] = 60-200 μM TS2, two independent experiments, read-out: Ki, assumed inhibitor type noncompetitive
[11] = HTS format, Ki ± SD (n = 3), Table 1, read-out: Ki Measured

T1 sequence (P28593 whole entry): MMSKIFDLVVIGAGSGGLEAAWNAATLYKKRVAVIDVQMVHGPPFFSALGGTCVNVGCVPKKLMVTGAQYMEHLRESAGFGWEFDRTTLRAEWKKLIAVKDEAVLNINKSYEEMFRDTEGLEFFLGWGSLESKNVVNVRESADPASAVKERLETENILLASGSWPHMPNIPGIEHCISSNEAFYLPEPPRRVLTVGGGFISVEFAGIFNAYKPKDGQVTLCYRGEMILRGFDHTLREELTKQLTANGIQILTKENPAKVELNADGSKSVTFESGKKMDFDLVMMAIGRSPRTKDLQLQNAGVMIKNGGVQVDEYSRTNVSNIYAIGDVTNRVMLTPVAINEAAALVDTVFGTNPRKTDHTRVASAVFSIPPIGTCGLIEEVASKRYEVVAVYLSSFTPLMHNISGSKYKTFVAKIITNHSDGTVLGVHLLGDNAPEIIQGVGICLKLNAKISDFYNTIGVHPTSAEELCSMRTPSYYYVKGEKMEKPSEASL

SMILES	Ki, assumed inhibitor type uncompetitive (T. cruzi TR [1]; [8]) [nM]	Ki (T. cruzi TR [1]; [9]) [nM]	Ki (T. cruzi TR [1]; [10]) [nM]	Ki (Fig 7, uncompetitive mode of inhibition assumed) (T. cruzi TR [1])	IC50 (T. cruzi TR [2]) [nM]	EC50 [3] [nM]	other results
NS(=O)(=O)c1ccc(Nc2cc(Cl)c3nonc3c2[N+](=O)[O-])cc1 [Compound 4]	800 ± 100	190 ± 70	1110 ± 130	0.80 ± 0.10	480 ± 20		EC50, inhibition of parasite proliferation (living cells counted) ([3]; after 48 h and 72 h): not active
CCN(CC)CCCC(C)Nc1c2ccc(Cl)cc2nc2ccc(OC)cc12 (stereo not shown) [Mepacrine, reference compound]					> 200000		Ki (T. cruzi TR [1]; [11]): 20000 ± 5000 nM; binding mode (inhibition type) (T. cruzi TR [1]): competitive binding mode; Ki (T. cruzi TR [1]; three independent experiments, fitted to the relevant binding model, read-out: measured Ki (Lineweaver-Burk plots, Fig 3)): 20700 ± 5470 nM; Ki (TR): 19000 nM
CC1CS(=O)(=O)CCN1/N=C/c1ccc([N+](=O)[O-])o1 (stereo not shown) [nifurtimox]							EC50 (T. brucei): 2500 nM
O=[N+]([O-])c1c(Sc2ncnc3ccccc23)cc(Cl)c2nsnc12 [Compound 2]	880 ± 80	260 ± 120	1300 ± 120	0.88 ± 0.08	580 ± 90	5000 to 50000	EC50 ([4]; read-out: EC50 24 h, Wild-type cells, ATPlite, 24 h, mean ± SD of three series): 56400 ± 2000 nM; EC50 ([4]; read-out: EC50 48 h, Wild-type cells, ATPlite, 48 h, mean ± SD of three series): 33000 ± 2200 nM; EC50 ([4]; read-out: EC50 at 24 h (ATPlite), 24 h, cell type not given): 42000 nM; EC50 ([4]; read-out: EC50 at 48 h (ATPlite), 48 h, cell type not given): 42000 nM; EC50 ([4]; 72 h, cell type not given, read-out: EC50 after 72 h (ATPlite)): 58000 nM; EC50 ([4]; ATPlite, 72 h, series containing up to 150 μM compound = 1.5% DMSO, which affects cell viability, read-out: EC50 72 h, Wild-type cells): 55900 ± 1300 nM; EC50 ([5]; 24 h, read-out: EC50 24 h, TR-Over-expressing cells): 37600 ± 1900 nM; EC50 ([5]; 48 h, read-out: EC50 48 h, TR-Over-expressing cells): 46900 ± 3100 nM; EC50 ([5]; 72 h, read-out: EC50 72 h, TR-Over-expressing cells): 82000 ± 1600 nM
[H]/N=C(\N/C(=N/[H])NCCCCCCNC(=N)NC(=N)Nc1ccc(Cl)cc1)Nc1ccc(Cl)cc1 [Chlorhexidine, reference compound]					26000 ± 2000	100 to 200	Ki (T. cruzi TR [1]; [11]): 4000 ± 1000 nM; binding mode (inhibition type) (T. cruzi TR [1]): competitive binding mode; permeability described in pharmacokinetic studies [6]: poor permeability; reversible or irreversible binding to the enzyme (T. cruzi TR [7]; 100 μM inhibitor, 300 μM NADPH, 30 min incubation, wash-out): reversible; TR activity recovered compared to the initial kinetics (T. cruzi TR [7]; after wash-out of the inhibitor): 70–80%; Ki (TR): 2000 nM
O=C(Nc1ccccc1)OCCSc1ccc([N+](=O)[O-])c2nonc12 [Compound 1]	230 ± 20	60 ± 30	330 ± 30	0.23 ± 0.02	270 ± 10		
O=[N+]([O-])c1c(Cl)cc(Cl)c2nsnc12 [Compound 3]	640 ± 60	150 ± 90	910 ± 80	0.64 ± 0.06	610 ± 90	5000 to 50000	
